Laboratory results published in US8026245B2, “HIV replication inhibiting purine derivatives” (Janssen Pharmaceutica N.V., priority 2003, dated 2011).

Key:
[1] = tested on: HIV-1; details: Method A; for pEC50 (−logEC50): MT-4 cells, HIV-infected, MTT, 50% protection; for pSI (pCC50-pEC50): selectivity index, ratio of CC50 to EC50
Description: An […] T4-cell line, MT-4, which was previously shown (Koyanagi et al., Int. J. Cancer, 36, 445-451, 1985) to be highly susceptible to and permissive for HIV infection, served as the target cell line. Inhibition of the HIV-induced cytopathic effect was used as the end point. The viability of both HIV- and mock-infected cells was assessed spectrophotometrically via the in situ reduction of 3-(4,5-dimethylthiazol-2-yl)-2,5-diphenyltetrazolium bromide (MTT). The 50% cytotoxic concentration (CC50 in M) was defined as the concentration of compound that reduced the absorbance of the mock-infected control sample by 50%. The percent protection achieved by the compound in HIV-infected cells was calculated by the following formula:
[formula] whereby (ODT)HIV is the optical density measured with a given concentration of the test compound in HIV-infected cells; (ODC)HIV is the optical density measured for the control untreated HIV-infected cells; (ODC)MOCK is the optical density measured for the control untreated mock-infected cells; all optical density values were determined at 540 nm. The dose achieving 50% protection according to the above formula was defined as the 50% effective concentration (EC50 in M). The ratio of CC50 to EC50 was defined as the selectivity index (SI). Method B

[2] = tested on: mock-infected MT-4 cells; format: cell-based
Description: An HIV-1 transformed T4-cell line, MT-4, which was previously shown (Koyanagi et al., Int. J. Cancer, 36, 445-451, 1985) to be highly susceptible to and permissive for HIV infection, served as the target cell line. Inhibition of the HIV-induced cytopathic effect was used as the end point. The viability of both HIV- and mock-infected cells was assessed spectrophotometrically via the in situ reduction of 3-(4,5-dimethylthiazol-2-yl)-2,5-diphenyltetrazolium bromide (MTT). The 50% cytotoxic concentration (CC50 in M) was defined as the concentration of compound that reduced the absorbance of the mock-infected control sample by 50%. The percent protection achieved by the compound in HIV-infected cells was calculated by the following formula:

Row | SMILES | pEC50 (−logEC50) [1] | pSI (pCC50-pEC50) [1] | pCC50 (−logCC50) [2]
1 | Cc1cc(C)c(Nc2nc(Nc3ccc(C#N)cc3)nc3[nH]cnc23)c(C)c1 [Compound 24] | 8.4 M | −4.1 | 4.3
2 | COc1cc(C)c(Nc2nc(Nc3ccc(C#N)cc3)nc3[nH]cnc23)c(C)c1 [Compound 25] | 8.5 M | <−4 | <4.5
3 | Cc1cc(C#N)cc(C)c1Oc1nc(Nc2ccc(C#N)cc2)nc2[nH]cnc12 [Compound 28] | 9.0 M | <−4.4 | <4.6
